Measurements as given in patent publication US20040209850A1, “Methods of treating pain and compositions for use therefor” (TheraQuest Biosciences, LLC, priority 2003, published 2004).

How the values were obtained:
[1] = test system: mouse; assay: Chemically-induced (acetic acid) abdominal constrictions in the mouse; format: in vivo; conditions: mean ± S.E.M.
Description: Albuterol or vehicle 1 was dosed intraperitoneally (−25 min), followed by a subcutaneous dose of indomethacin or vehicle 2 (−20 min), prior to acetic acid (0.7% v/v) administration (0 min).

[2] = test system: rat; assay: Tail-flick test: antinociception of albuterol, morphine and morphine plus albuterol (% MPE, A50); format: in vivo
Description: The tail flick test was first described by D'Amour and Smith (1941), and remains essentially unchanged in application. (See generally D'Amour, F. E. and Smith, D. L., “A method for determining loss of pain sensation”, J. Pharmacol. Exp. Therap., 72:74-79(1941); Dewey, D. L. and Harris, L. S., The Tail-flick test. In: S. Ehrenpreis and A. Neidle (Eds.), Methods in Narcotic Research, Marcel Dekker, Inc., New York, 1975, pp. 101-109; and Dubner, R. and Ren, K., “Assessing transient and persistent pain in animals.” In: P. D. Wall and R. Melzack (Eds.), Textbook of Pain, Churchill Livingstone, London, 1999, pp. 359-369). Quite simply, the tail of a rat or mouse is exposed to radiant heat, and the latency to withdraw is determined. The basal heat intensity is set so that naive rats withdraw their tails within 2 to 3 sec. A cut-off latency of 10 sec (i.e., 3 to 4 times basal control value) is commonly employed to prevent tissue damage. An alternative to using radiant heat is to dip the tail into a water bath maintained at a fixed temperature, usually in the moderately noxious range of about 52° C. or 55° C. One advantage of a water bath is that the temperature is kept constant.
The tail-flick test is considered to be very robust in that weak analgesic agents are not detected by this test. […] It is even possible to perform the tail-flick test in lightly anesthetized animals.
Data obtained from the rat tail-flick test conform to a graded dose-response curve. The raw tail withdrawal latencies are converted to a % MPE (% maximal possible effect) by the formula:
% MPE=100×(test latency−basal latency)/(cut-off−basal latency).
This formula constrains the data to fit between 0% MPE and 100% MPE. […] These calculations then allow for the determination of relative potencies of different drugs and allow for the isobolographic determination of possible synergistic effects. Instances where the test latency is less than the basal latency produces a negative % MPE, which is meaningless unless one is measuring hyperalgesia.
Absent any interaction, the dose-effect curves for morphine alone and in the presence of albuterol should be identical.
This manipulation allowed the construction of dose-effect curves and more importantly, the calculation of the A50 (dose required to produce a 50% effect) and the confidence intervals. The data were converted to % MPE based on the equation:
% MPE=(response−baseline)/(8.2−baseline)×100.
Baseline refers to the pre-treatment tail-flick latencies, and 8.2 represents the maximal effect. […] The A50 values and confidence intervals for each of the dose-effect curves were determined from linear regression analysis of the logdose-effect curves. Significant shifts in the dose-effect curves were indicated by Student's t-statistic applied to the A50 values obtained for morphine and morphine plus albuterol, and was performed with our custom-designed data analysis software.
The SEM values are approximate and are derived as a ratio of the SEM of the raw data to the respective mean and adjusted as a function of % MPE.

Question: What does the source list for `COc1ccc2c(c1)c(CC(=O)O)c(C)n2C(=O)c1ccc(Cl)cc1` [Indomethacin]?
Answer: Number of Abdominal Constrictions Exhibited in Time Period (min) Post Acetic Acid ([1]; indomethacin 0.1 mg/kg s.c., 5-10 min): 14.3 ± 2.6; Number of Abdominal Constrictions Exhibited in Time Period (min) Post Acetic Acid ([1]; indomethacin 0.1 mg/kg s.c., 5-15 min): 23.6 ± 3.7; Number of Abdominal Constrictions Exhibited in Time Period (min) Post Acetic Acid ([1]; indomethacin 1 mg/kg s.c., 5-10 min): 7.5 ± 2.0; Number of Abdominal Constrictions Exhibited in Time Period (min) Post Acetic Acid ([1]; indomethacin 1 mg/kg s.c., 5-15 min): 14.5 ± 2.9; Number of Abdominal Constrictions Exhibited in Time Period (min) Post Acetic Acid ([1]; indomethacin 3 mg/kg s.c., 5-10 min): 6.8 ± 1.7; Number of Abdominal Constrictions Exhibited in Time Period (min) Post Acetic Acid ([1]; indomethacin 3 mg/kg s.c., 5-15 min): 12.2 ± 3.1; Number of Abdominal Constrictions Exhibited in Time Period (min) Post Acetic Acid ([1]; indomethacin 5 mg/kg s.c., 5-10 min): 8.3 ± 2.0; Number of Abdominal Constrictions Exhibited in Time Period (min) Post Acetic Acid ([1]; indomethacin 5 mg/kg s.c., 5-15 min): 14.1 ± 3.4; Number of Abdominal Constrictions Exhibited in Time Period (min) Post Acetic Acid ([1]; indomethacin 10 mg/kg s.c., 5-10 min): 6.8 ± 1.7; Number of Abdominal Constrictions Exhibited in Time Period (min) Post Acetic Acid ([1]; indomethacin 10 mg/kg s.c., 5-15 min): 11.9 ± 2.9; Number of Abdominal Constrictions Exhibited in Time Period (min) Post Acetic Acid ([1]; indomethacin 30 mg/kg s.c., 5-10 min): 10.5 ± 2.3; Number of Abdominal Constrictions Exhibited in Time Period (min) Post Acetic Acid ([1]; indomethacin 30 mg/kg s.c., 5-15 min): 17.6 ± 3.2; Number of Abdominal Constrictions Exhibited in Time Period (min) Post Acetic Acid ([1]; indomethacin 50 mg/kg s.c., 5-10 min): 1.4 ± 0.6; Number of Abdominal Constrictions Exhibited in Time Period (min) Post Acetic Acid ([1]; indomethacin 50 mg/kg s.c., 5-15 min): 4.5 ± 1.3

Question: How did the “A50 (95% confidence interval), dose required to produce a 50% effect” value (“A50 (95% confidence interval)” for short) ([2]; 30 minutes after injection) turn out when `CN1CC[C@]23c4c5ccc(O)c4O[C@H]2[C@@H](O)C=C[C@H]3[C@H]1C5` [Morphine] was run?
Answer: Its value is 4.53 mg/kg.

Question: What about the “A50 (95% confidence interval)” value ([2]; 30 minutes after injection, listed as Morphine alone) of the same compound?
Answer: The value was 4.53 (3.92 to 5.24) mg/kg.

Question: What about the “A50 (95% confidence interval)” value ([2]; 60 minutes after injection) of the same compound?
Answer: The value was 9.94 mg/kg.

Question: And the “A50 (95% confidence interval)” value ([2]; 60 minutes after injection, listed as Morphine alone)?
Answer: Its value is 9.94 (9.84 to 10.04) mg/kg.

Question: And the “dose-dependency of antinociception (FIG. 1)” value ([2]; dose-effect curves as % MPE)?
Answer: The value was “demonstrated dose-dependent antinociception”.

Question: What about the “antinociceptive effect (in words)” value ([2]; morphine 0.3 mg/kg to 2.5 mg/kg) of the same compound?
Answer: Its value is “minimal effects”.

Question: And the “Antinociceptive effect (as % MPE)” value ([2]; morphine alone 0.3125 mg/kg, 30 minutes)?
Answer: The value was 25.86 ± 3.31 % MPE.

Question: What about the “Antinociceptive effect (as % MPE)” value ([2]; morphine alone 0.3125 mg/kg, 60 minutes) of the same compound?
Answer: The value was 24.14 ± 1.27 % MPE.

Question: And the “Antinociceptive effect (as % MPE)” value ([2]; morphine alone 0.625 mg/kg, 30 minutes)?
Answer: Its value is 22.41 ± 1.82 % MPE.

Question: And the “Antinociceptive effect (as % MPE)” value ([2]; morphine alone 0.625 mg/kg, 60 minutes)?
Answer: Its value is 20.69 ± 1.72 % MPE.

Question: What about the “Antinociceptive effect (as % MPE)” value ([2]; morphine alone 1.25 mg/kg, 30 minutes) of the same compound?
Answer: The value was 33.33 ± 2.27 % MPE.

Question: And the “Antinociceptive effect (as % MPE)” value ([2]; morphine alone 1.25 mg/kg, 60 minutes)?
Answer: The value was 19.3 ± 2.14 % MPE.

Question: What about the “Antinociceptive effect (as % MPE)” value ([2]; morphine alone 2.5 mg/kg, 30 minutes) of the same compound?
Answer: The value was 28.57 ± 2.04 % MPE.

Question: What about the “Antinociceptive effect (as % MPE)” value ([2]; morphine alone 2.5 mg/kg, 60 minutes) of the same compound?
Answer: Its value is 21.43 ± 1.69 % MPE.

Question: What about the “Antinociceptive effect (as % MPE)” value ([2]; morphine alone 5 mg/kg, 30 minutes) of the same compound?
Answer: Its value is 44.07 ± 3.6 % MPE.

Question: What about the “Antinociceptive effect (as % MPE)” value ([2]; morphine alone 5 mg/kg, 60 minutes) of the same compound?
Answer: The value was 13.56 ± 2.19 % MPE.

Question: What about the “Antinociceptive effect (as % MPE)” value ([2]; morphine alone 10 mg/kg, 30 minutes) of the same compound?
Answer: Its value is 91.07 ± 14.19 % MPE.

Question: What about the “Antinociceptive effect (as % MPE)” value ([2]; morphine alone 10 mg/kg, 60 minutes) of the same compound?
Answer: Its value is 50 ± 9.26 % MPE.
